Results on one compound are retold here after patent publication US20230075822A1, “USE OF CASTALAGIN OR ANALOGS THEREOF FOR ANTI-CANCER EFFICACY AND TO INCREASE THE RESPONSE TO IMMUNE CHECKPOINT INHIBITORS” (THE ROYAL INSTITUTION FOR THE ADVANCEMENT OF …, priority 2020, published 2023).

In test [1] the test system is gut microbiota. The experiment in a line: 16S rRNA gene sequencing of mouse feces (microbiome profiling). In kind it is in vivo, mice. As to the method: Genomic DNA extraction from mouse feces. Total genomic DNA from fecal pellets was extracted using ZymoBIOMICS DNA Miniprep Kit (Zymo Research Corporation) and immediately stored at -80° C. This protocol involves a bead beating step to ensure full recovery of bacterial DNA. DNA concentration and quality were measured using the Nanodrop ND-1000 (ThermoFisher).
16S rRNA gene sequence processing and analysis mouse feces samples. Isolated DNA was analyzed using 16S ribosomal RNA (rRNA) gene sequence to investigate the microbial composition in fecal samples. The V3—V4 region of the 16S rDNA gene was amplified by PCR using primers Bakt_341F (5′-CCTACGGGNGGCWGCAG-3′, SEQ ID NO:5) and Bakt_805R (5′-[…]-3′, SEQ ID NO:6) adapted to incorporate the transposon-based Illumina Nextera adapters (Illumina) and a sample barcode sequence allowing multiplexed paired-end sequencing. PCR mixtures contained 1× Q5 buffer (NEB), 1× Q5 Enhancer (NEB), 200 μM dNTP (VWR International), 0.2 μM of forward and reverse primer (Integrated DNA Technologies), 1 unit of Q5 (NEB) and 1 μl of template DNA in a 50 μl reaction. The PCR cycling conditions consisted of an initial denaturation of 30 sec at 98° C., followed by a first set of 15 cycles (98° C. for 10 sec, 55° C. for 30 sec and 72° C. for 30 sec), then by a second step of 15 cycles (98° C. for 10 sec, 65° C. for 30 sec and 72° C. for 30 sec) and final elongation of 2 min at 72° C. before cooling to 4° C. indefinitely. PCR products were purified using 35 pl of magnetic beads (AxyPrep Mag PCR Clean up kit; Axygen Biosciences) per 50 μl PCR reaction. Amplifications were controlled on a Bioanalyzer 2100 using DNA 7500 chips (Agilent Technologies). Samples were pooled at an equimolar ratio; the pool was repurified as described before and checked for quality on a Bioanalyzer 2100 using a DNA high sensitivity chip. The pool was quantified using picogreen (Life Technologies) and loaded on a MiSeq system (Illumina). High-throughput sequencing was performed at the IBIS (Institut de Biologie Integrative et des Systèmes—Université Laval).
Gene sequence processing and analysis was performed using R v4.0.0. DADA2R package v1.16.0 (Callahan et al., Nat Methods. 2016 July; 13(7):581-3) was used to generate exact amplicon sequence variants (ASV) of each sample from raw amplicon sequences. Sequences were corrected for Illumina amplicon sequence errors, de-replicated, chimera removed, and merged of paired-end reads with 260-bases for forward reads and 190-bases for reverse reads. The taxonomy assignment was performed against the SILVA reference database v138 (Quast et al., Nucleic Acids Res. 2013 January; 41(Database issue):D590-6). Archea and Eukaryota residual sequences were removed. Downstream analyses were performed at the genus-level through phyloseq R package v1.32.0 (McMurdie et al., PLoS One. 2013 Apr 22;8(4):e61217). The alpha-diversity was estimated with the Shannon diversity index and the Inverse Simpson index. These indexes were compared between groups using Mann-Whitney tests.
Statistical analysis. Statistical analysis was performed using R v4.0.0. The Mann-Whitney U test was used to determine significant differences among the different groups using alpha-diversity which show the diversity in each individual sample measures. DESeq2 (Love et al., Genome Biol. 2014;15(12):550) was used to perform differential abundances analysis at the genus-level. […]

The subject of test [2] is MCA-205 sarcoma. The experiment in a line: Avatar mice: FMT from responder (R) / non-responder (NR) NSCLC patients, MCA-205 tumors. In kind it is in vivo, C57BL/6 mice. On the procedure: FIG. 5A is a schematic of the experimental design of avatar mice experiments. FMT from feces samples from Non-responders (NR) and responders (R) Non-small cell lung cancer (NSCLC) patients were individually performed after 3 days of ATB in SPF C57BI6 mice. Two weeks later, MCA-205 sarcoma cells were inoculated and daily gavage with water or CC were performed in combination with sequential injections of αPD-1 or IsoPD-1 mAb.
FIG. 11A is a graph showing the effect of castalagin (0.85 mg/kg) in the presence or not of anti-PD-1 on tumor growth kinetics in the in the ATB-avatar model after FMT from 1 NR NSCLC patient with daily gavage with castalagin or water in combination with αPD1 mAb or IsoPD-1. Unpaired t-tests were used. Means ±SEM are represented. *p<0.05. […]
Fecal microbiota transplantation (FM7) experiments. FMT was performed as previously published Routy et al. by thawing fecal material from 5 different Non-Small cell lung cancer (NSCLC) patients amenable to immune checkpoint blockers (ICI after appropriate ethics approval at the Centre de recherche du Centre hospitalier de l'Université de Montréal (CRCHUM) in Montreal. Patient records were retrospectively analyzed to identify their response status. Two weeks after FMT, tumor cells were injected subcutaneously and mice were treated with anti-PD-1 mAb or isotype control +/− CC, castalagin or water as described above.

Regarding `O=C1OC[C@H]2OC(=O)c3cc(O)c(O)c(O)c3-c3c(O)c(O)c(O)c4c3C(=O)O[C@H]([C@H]3OC(=O)c5c-4c(O)c(O)c(O)c5[C@@H]3O)[C@@H]2OC(=O)c2cc(O)c(O)c(O)c2-c2c1cc(O)c(O)c2O` [castalagin, Castalagin], in test [1] (MCA-205 model, SPF mice, castalagin or water gavage), the “beta-diversity (Bray-Curtis)” value was “significant clusters formation observed with beta-diversity”. The “differential abundance, taxa enriched” value in test [1] (MCA-205 model, SPF mice, castalagin/IsoPD-1 vs water/IsoPD-1) is “enrichment of Akkermensia, Ruminococcaceae UBA1819, Ruminococcus, Staphylococcus, Escherichia/shigella, Blautia and Alistipes”. Besides, the “alpha-diversity (observed genus)” value in test [1] (MCA-205 model, SPF mice, castalagin/isoPD-1, post-castalagin vs baseline) is recorded as “increased alpha-diversity”. Besides, the “relative abundance, genera increased” value in test [1] (NR FMT experiment, castalagin groups relative to water groups) was “increase of the relative abundance after 16s sequencing analysis of Ruminococcus, Alistepes, Christensenellaceae R7 group, Paraprevotella”. Moreover, the “relative abundance of Lachnoclostridium” value in test [1] (NR FMT experiment, castalagin vs water groups) is given as “no difference of Lachnoclostridium was observed”. For the same compound, the “antitumor activity (tumor growth)” value in test [2] (castalagin 0.85 mg/kg + αPD-1, post-FMT from NR NSCLC patients) is reported as “additive effect when combined with αPD-1”; in test [2] (castalagin 0.85 mg/kg alone, post-FMT from NR NSCLC patients, ATB and GF conditions) it was “able to restore antitumor activity”.
